# Assay results from patent US4025506A, “Broad spectrum antibiotics” (Pfizer Inc., priority 1975, dated 1977).
# Where two headings read alike, the source gives them in different places.
# Key:
# E. coli 51A266 [1] = experiment: In vivo protection against experimental E. coli infection in mice (Table II); conditions: doses 0.5, 4 and 24 hours after inoculation
# Description: Table II presents the in vivo comparison data for the three compounds contained in Table I against several experimental infections in mice.
# The values (% survivors) are obtained under standard conditions known to those skilled in the art. For the E. coli organism, the test compound is administered to the infected mice by a multiple dosing regimen in which the first dose is given 0.5 hour after inoculation and is repeated 4 and 24 hours later.
# P. mirabilis 57C0015 = experiment: In vitro antibacterial MIC, P. mirabilis 57C0015; assay type: cell-based; conditions: Proteus mirabilis
# Excerpt: (§1) The in vitro activity of the herein described compounds renders them useful for topical application in the form of ointments, creams and the like, or for sterilization purposes, e.g., sick-room utensils.
# (§2) Table I compares the in vitro profile of 6-[D-2-phenyl-2-(amidinopropionamido)acetamido]penicillanic acid (PAP) with ampicillin (AMP) and carbenicillin (CAR).
# Kleb. penumoniae 53A015 = experiment: In vitro antibacterial MIC, Kleb. penumoniae 53A015; assay type: cell-based; conditions: nutrient broth, Table I
# Excerpt: as §1, §2
# A. aerogenes 55A002 = experiment: In vitro antibacterial MIC, A. aerogenes 55A002; assay type: cell-based; conditions: Klebsiella aerogenes, nutrient broth, Table I
# Excerpt: as §1, §2
# E. coli 51A002 = experiment: In vitro antibacterial MIC, E. coli 51A002; assay type: cell-based; conditions: Escherichia coli, nutrient broth, Table I
# Excerpt: as §1, §2
# Ps. aeruginosa 52A490 = experiment: In vitro antibacterial MIC, Ps. aeruginosa 52A490; assay type: cell-based; conditions: Pseudomonas aeruginosa
# Excerpt: as §1, §2
# A. aerogenes = experiment: In vitro antibacterial MIC, A. aerogenes; assay type: cell-based; conditions: Klebsiella aerogenes
# Excerpt: as §1, §2
# E. coli 51A266 [2] = experiment: In vitro antibacterial MIC, E. coli 51A266; assay type: cell-based; conditions: Escherichia coli
# Excerpt: as §1, §2
# E. coli 51A266 [3] = experiment: In vivo protection against E. coli infection in mice (Table IV); conditions: doses 0.5, 4 and 24 hours after inoculation
# Description: Table IV presents in vivo comparison data for the four compounds in Table III against E. coli infections in mice.
# The values, reported as % survivors, are obtained under standard conditions familiar to those skilled in the art. The test compound is administered to the infected mice by a multiple dosing regimen in which the first dose is given 0.5 hour after inoculation and is repeated 4 and 24 hours later.
# Ps. aeruginosa 52A104 = experiment: In vitro antibacterial MIC, Ps. aeruginosa 52A104; assay type: cell-based; conditions: Pseudomonas aeruginosa
# Excerpt: as §1, §2
# Ser. marcescens 63A001 = experiment: In vitro antibacterial MIC, Ser. marcescens 63A001; assay type: cell-based; conditions: Serratia marcescens
# Excerpt: as §1, §2
# P. mirabiis 57C015 = experiment: In vitro antibacterial MIC, P. mirabiis 57C015; assay type: cell-based
# Excerpt: as §1, §2
# Kleb. pneumoniae 53A009 = experiment: In vitro antibacterial MIC, Kleb. pneumoniae 53A009; assay type: cell-based; conditions: Klebsiella pneumoniae
# Excerpt: as §1, §2
# S. aureus 01A005 = experiment: In vitro antibacterial MIC, S. aureus 01A005; assay type: cell-based; conditions: Staphylococcus aureus
# Excerpt: as §1, §2
# gram-negative bacteria = conditions: cited from earlier work
# [4] = P. mirabilis 57C0015, nutrient broth, Table I, read-out: MIC
Structure (SMILES),"% Protection (% survivors) (E. coli 51A266 [1]; PO, 50 mg./kg.) [%]","% Protection (% survivors) (E. coli 51A266 [1]; PO, 200 mg./kg.) [%]","% Protection (% survivors) (E. coli 51A266 [1]; SC, 50 mg./kg.) [%]","% Protection (% survivors) (E. coli 51A266 [1]; SC, 200 mg./kg.) [%]",MIC (Ps. aeruginosa 52A490) [µg/mL],MIC (A. aerogenes) [µg/mL],MIC (E. coli 51A266 [2]) [µg/mL],"% Survivors (E. coli 51A266 [3]; PO, 25 mg./kg.) [%]","% Survivors (E. coli 51A266 [3]; PO, 50 mg./kg.) [%]","% Survivors (E. coli 51A266 [3]; PO, 200 mg./kg.) [%]","% Survivors (E. coli 51A266 [3]; SC, 25 mg./kg.) [%]","% Survivors (E. coli 51A266 [3]; SC, 50 mg./kg.) [%]","% Survivors (E. coli 51A266 [3]; SC, 200 mg./kg.) [%]",MIC (Ps. aeruginosa 52A104) [µg/mL],MIC (Ser. marcescens 63A001) [µg/mL],MIC (P. mirabiis 57C015) [µg/mL],MIC (Kleb. pneumoniae 53A009) [µg/mL],MIC (S. aureus 01A005) [µg/mL],further results
"CC1(C)S[C@@H]2[C@H](NC(=O)[C@H](N)c3ccccc3)C(=O)N2[C@H]1C(=O)O [AMP, ampicillin]",80,90,80,90,–,–,–,–,–,–,–,–,–,–,–,–,–,–,MIC (P. mirabilis 57C0015; 57C0015): 1.56 µg/mL
"CC1(C)S[C@@H]2[C@H](NC(=O)C(C(=O)O)c3ccccc3)C(=O)N2[C@H]1C(=O)O (some centres unmarked) [CAR, carbenicillin]",10,70,90,90,–,–,–,–,–,–,–,–,–,–,–,–,–,–,MIC (Kleb. penumoniae 53A015): > 200 µg/mL; MIC (P. mirabilis 57C0015; [4]): 1.25 µg/mL
"CC1(C)S[C@@H]2[C@H](NC(=O)[C@H](NC(=O)CCC(=N)N)c3ccccc3)C(=O)N2[C@H]1C(=O)O [PAP, 6-[D-2-phenyl-2-(amidinopropionamido)acetamido]penicillanic acid]",20,30,80,80,–,–,–,–,–,–,–,–,–,–,–,–,–,–,MIC (A. aerogenes 55A002): 100 µg/mL; MIC (E. coli 51A002): 200 µg/mL; MIC (Kleb. penumoniae 53A015): > 200 µg/mL; MIC (P. mirabilis 57C0015; [4]): 6.25 µg/mL
CC1(C)S[C@@H]2[C@H](NC(=O)C(NC(=O)CNC(=N)c3ccc(Br)cc3)c3ccccc3)C(=O)N2[C@H]1C(=O)O (some centres unmarked) [X = Br],–,–,–,–,6.25,3.12,0.39,10,0,0,50,60,90,25,6.25,3.12,12.5,0.39,–
CC1(C)S[C@@H]2[C@H](NC(=O)C(NC(=O)CNC(=N)c3ccc(Cl)cc3)c3ccccc3)C(=O)N2[C@H]1C(=O)O (some centres unmarked) [X = Cl],–,–,–,–,12.5,3.12,0.78,0,0,0,50,60,70,25,6.25,3.12,12.5,0.39,–
CC1(C)S[C@@H]2[C@H](NC(=O)C(NC(=O)CNC(=N)c3ccc(F)cc3)c3ccccc3)C(=O)N2[C@H]1C(=O)O (some centres unmarked) [X = F],–,–,–,–,3.12,25,1.56,10,0,10,50,70,90,12.5,6.25,3.12,25,0.39,–
CC1(C)S[C@@H]2[C@H](NC(=O)C(NC(=O)CNC(=N)c3ccccc3)c3ccccc3)C(=O)N2[C@H]1C(=O)O (some centres unmarked) [X = H],–,–,–,–,12.5,25,12.5,0,0,10,10,70,90,25,12.5,12.5,100,0.78,–
CC1(C)S[C@@H]2[C@H](NC(=O)C(C(=O)O)c3ccccc3)C(=O)N2[C@H]1C(=O)O (stereo partly drawn) [α-Carboxybenzylpenicillin],–,–,–,–,–,–,–,–,–,–,–,–,–,–,–,–,–,–,utility via oral administration (in words) (gram-negative bacteria; oral): limited utility via oral administration; efficacy against gram-negative bacteria (in words) (gram-negative bacteria; parenteral route): greater efficacy against gram-negative bacteria
